This note sets out measurements from patent EP3623369A1, “NOVEL MORPHOLINYL AMINE COMPOUNDS FOR THE TREATMENT OF AUTOIMMUNE DISEASE” (F. Hoffmann-La Roche AG, priority 2018, dated 2020).

In the experiment the target is T1, hTLR7 (Homo sapiens, UniProt Q9NYK1).
T1 sequence (Q9NYK1 27-1049): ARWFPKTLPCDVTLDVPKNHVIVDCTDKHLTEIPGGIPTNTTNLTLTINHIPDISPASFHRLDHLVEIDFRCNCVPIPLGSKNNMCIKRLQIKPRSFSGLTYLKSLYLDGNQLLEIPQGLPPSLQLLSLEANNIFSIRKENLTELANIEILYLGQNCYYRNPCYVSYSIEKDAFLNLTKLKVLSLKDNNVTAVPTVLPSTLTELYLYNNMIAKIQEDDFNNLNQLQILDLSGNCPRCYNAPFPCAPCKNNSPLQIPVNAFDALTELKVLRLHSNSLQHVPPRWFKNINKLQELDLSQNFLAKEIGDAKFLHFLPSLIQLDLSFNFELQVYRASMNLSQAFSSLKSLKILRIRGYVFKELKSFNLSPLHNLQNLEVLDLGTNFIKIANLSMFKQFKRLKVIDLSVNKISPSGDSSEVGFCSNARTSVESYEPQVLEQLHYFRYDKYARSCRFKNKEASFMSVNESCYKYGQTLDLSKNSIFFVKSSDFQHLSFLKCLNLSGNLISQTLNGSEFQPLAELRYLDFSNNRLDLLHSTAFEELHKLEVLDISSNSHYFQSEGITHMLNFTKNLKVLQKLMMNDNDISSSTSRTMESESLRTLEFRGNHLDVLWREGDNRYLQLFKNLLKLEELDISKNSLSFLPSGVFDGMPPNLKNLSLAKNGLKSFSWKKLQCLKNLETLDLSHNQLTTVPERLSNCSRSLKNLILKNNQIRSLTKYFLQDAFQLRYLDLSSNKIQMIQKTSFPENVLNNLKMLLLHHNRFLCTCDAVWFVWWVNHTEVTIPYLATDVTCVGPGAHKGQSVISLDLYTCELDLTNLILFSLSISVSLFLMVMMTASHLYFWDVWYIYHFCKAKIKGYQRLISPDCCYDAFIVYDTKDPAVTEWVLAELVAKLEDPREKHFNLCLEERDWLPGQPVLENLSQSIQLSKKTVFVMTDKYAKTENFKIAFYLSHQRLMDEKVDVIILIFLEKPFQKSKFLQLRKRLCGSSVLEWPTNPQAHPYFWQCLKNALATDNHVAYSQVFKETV
In words: HEK293-Blue-hTLR-7 cells assay (SEAP reporter, R848 stimulation). The class given is cell-based. As to conditions: HEK293-Blue-hTLR7 cells, R848, 20 hrs; 0.003 is the lowest tested concentration; read-out: HEK/hTLR7 IC50. As to the method:
The following tests were carried out in order to determine the activity of the compounds of formula (I) or (Ia) in HEK293-Blue-hTLR-7/8/9 cells assay.
HEK293-Blue-hTLR-7 cells assay:
A stable HEK293-Blue-hTLR-7 cell line was purchased from InvivoGen (Cat.#: hkb-htlr7, San Diego, California, USA). These cells were originally designed for studying the stimulation of human TLR7 by monitoring the activation of NF-κB. A SEAP (secreted embryonic alkaline phosphatase) reporter gene was placed under the control of the IFN-β minimal promoter fused to five NF-κB and AP-1-binding sites. The SEAP was induced by activating NF-κB and AP-1 via stimulating HEK-Blue hTLR7 cells with TLR7 ligands. Therefore the reporter expression was declined by TLR7 antagonist under the stimulation of a ligand, such as R848 (Resiquimod), for incubation of 20 hrs. The cell culture supernatant SEAP reporter activity was determined using QUANTI-Blue™ kit (Cat.#: rep-qb1, Invivogen, San Diego, Ca, USA) at a wavelength of 640 nm, a detection medium that turns purple or blue in the presence of alkaline phosphatase.
HEK293-Blue-hTLR7 cells were incubated at a density of 250,000∼450,000 cells/mL in a volume of 170 µL in a 96-well plate in Dulbecco's Modified Eagle's medium (DMEM) containing 4.5 g/L glucose, 50 U/mL penicillin, […], […], 2 mM L-glutamine, 10% (v/v) heat-inactivated fetal bovine serum with addition of 20 µL test compound in a serial dilution in the presence of final DMSO at 1% and 10 µL of 20uM R848 in above DMEM, perform incubation under 37 °C in a CO2 incubator for 20 hrs. Then 20 µL of the supernatant from each well was incubated with 180 µL Quanti-blue substrate solution at 37 °C for 2 hrs and the absorbance was read at 620∼655 nm using a spectrophotometer. The signalling pathway that TLR7 activation leads to downstream NF-κB activation has been widely accepted, and therefore similar reporter assay was modified for evaluating TLR7 antagonist.
For the compound `C[C@@H]1CN(c2ccc(C#N)c3ncccc23)C[C@H](CN2Cc3ccc(N4C5CCC4CNC5)cc3C2)O1` [Example 43, 5-[(2S,6R)-2-[[5-(3,8-diazabicyclo[3.2.1]octan-8-yl)isoindolin-2-yl]methyl]-6-methyl-morpholin-4-yl]quinoline-8-carbonitrile], the IC50 was 60 nM.

With `C[C@@H]1CN(c2ccc(Cl)c3nccnc23)C[C@H](CN2Cc3ccc(N4CCNCC4)cc3C2)O1` [Example 33, (2R,6S)-4-(8-chloroquinoxalin-5-yl)-2-methyl-6-[(5-piperazin-1-ylisoindolin-2-yl)methyl]morpholine], the IC50 is 9 nM.

In the case of `C[C@@H]1CN(c2ccc(C#N)c3ncccc23)C[C@H](CN2Cc3ccc(N4CCNCC4)nc3C2)O1` [Example 80, 5-[(2R,6S)-2-methyl-6-[(2-piperazin-1-yl-5,7-dihydropyrrolo[3,4-b]pyridin-6-yl)methyl]morpholin-4-yl]quinoline-8-carbonitrile], the IC50 was 7 nM.

Regarding `COCCN1CCN(c2ccc3c(c2)CN(C[C@H]2CN(c4ccc(C#N)c5nccnc45)C[C@@H](C)O2)C3)CC1` [Example 37, 8-[(2S,6R)-2-[[5-[4-(2-methoxyethyl)piperazin-1-yl]isoindolin-2-yl]methyl]-6-methyl-morpholin-4-yl]quinoxaline-5-carbonitrile], the IC50 turned out to be 50 nM.

Consider “5-[(2S,6R)-2-[[5-[3-(hydroxymethyl)piperazin-1-yl]isoindolin-2-yl]methyl]-6-methyl-morpholin-4-yl]quinoline-8-carbonitrile [Example 85]”, for which the IC50 was 20 nM.

Take `CC1CN(c2ccc3c(c2)CN(C[C@H]2CN(c4ccc(C#N)c5nccnc45)C[C@@H](C)O2)C3)CCN1` (stereo partly drawn) [Example 36, 8-[(2R,6S)-2-methyl-6-[[5-(3-methylpiperazin-1-yl)isoindolin-2-yl]methyl]morpholin-4-yl]quinoxaline-5-carbonitrile]: the IC50 worked out at 10 nM.

Turning to `C[C@@H]1CN(c2ccc(C#N)n3nccc23)C[C@H](CN2Cc3ccc(N4CCNCC4)cc3C2)O1` [Example 4, 4-[(2R,6S)-2-methyl-6-[(5-piperazin-1-ylisoindolin-2-yl)methyl]morpholin-4-yl]pyrazolo[1,5-a]pyridine-7-carbonitrile], the IC50 amounted to 56 nM.

On to `C[C@@H]1CN(c2ccc3c(c2)CN(C[C@H]2CN(c4ccc(C#N)c5ncccc45)C[C@@H](C)O2)C3)CCN1` [Example 62, 5-[(2R,6S)-2-methyl-6-[[5-[(3R)-3-methylpiperazin-1-yl]isoindolin-2-yl]methyl]morpholin-4-yl] quinoline-8-carbonitrile], for which the IC50 stood at 26 nM.

Consider `C[C@@H]1CN(c2ccc(C#N)c3nccnc23)C[C@H](CN2Cc3ccc(N4C5CCC4CNC5)cc3C2)O1` [Example 41, 8-[(2S,6R)-2-[[5-(3,8-diazabicyclo[3.2.1]octan-8-yl)isoindolin-2-yl]methyl]-6-methyl-morpholin-4-yl]quinoxaline-5-carbonitrile], for which the IC50 was 59 nM.

Take `C[C@@H]1CN(c2ccc(C#N)c3ncccc23)C[C@H](CN2CCc3cc(N4CCNCC4)ncc3C2)O1` [Example 70, 5-[(2R,6S)-2-methyl-6-[(6-piperazin-1-yl-3,4-dihydro-1H-2,7-naphthyridin-2-yl)methyl]morpholin-4-yl]quinoline-8-carbonitrile]: the IC50 amounted to 14 nM.

As to `C[C@@H]1CN(c2ccc(C#N)n3ncc(F)c23)C[C@H](CN2Cc3cc(N4CCNCC4)cnc3C2)O1` [Example 29, 3-fluoro-4-[(2R,6S)-2-methyl-6-[(3-piperazin-1-yl-5,7-dihydropyrrolo[3,4-b]pyridin-6-yl)methyl]morpholin-4-yl]pyrazolo[1,5-a]pyridine-7-carbonitrile], the IC50 stood at 49 nM.

In the case of `C[C@@H]1CN(c2ccc(C#N)n3nccc23)C[C@H](CNCc2ccc(N3CCNCC3)cc2)O1` [Example 16, 4-[(2R,6S)-2-methyl-6-[[(4-piperazin-1-ylphenyl)methylamino]methyl]morpholin-4-yl]pyrazolo[1,5-a]pyridine-7-carbonitrile], the IC50 is 104 nM.

Turning to `C[C@@H]1CN(c2ccc(C#N)c3ncccc23)C[C@H](CN2Cc3cnc(N4CCNCC4)cc3C2)O1` [Example 61, 5-[(2R,6S)-2-methyl-6-[(6-piperazin-1-yl-1,3-dihydropyrrolo[3,4-c]pyridin-2-yl)methyl]morpholin-4-yl]quinoline-8-carbonitrile], the IC50 came to 23 nM.

Regarding `C[C@@H]1CN(c2ccc(C#N)c3ncccc23)C[C@H](CN2Cc3ccc(N4CC5CCC(C4)N5)cc3C2)O1` [Example 42, 5-[(2S,6R)-2-[[5-(3,8-diazabicyclo[3.2.1]octan-3-yl)isoindolin-2-yl]methyl]-6-methyl-morpholin-4-yl]quinoline-8-carbonitrile], the IC50 was 62 nM.

In the case of `C[C@@H]1CN(c2ccc(C#N)c3ncccc23)C[C@H](CN2CCc3cc(N4CCNCC4)ccc3C2)O1` [Example 19, 5-[(2R,6S)-2-methyl-6-[(6-piperazin-1-yl-3,4-dihydro-1H-isoquinolin-2-yl)methyl]morpholin-4-yl]quinoline-8-carbonitrile], the IC50 was found to be 11 nM.

With “3-fluoro-4-[(2R,6S)-2-methyl-6-[(5-piperazin-1-ylisoindolin-2-yl)methyl]morpholin-4-yl]pyrazolo[1,5-a]pyridine-7-carbonitrile [Example 7]”, the IC50 came to 42 nM.

Regarding `COC(=O)C1CN(c2ccc3c(c2)CN(C[C@H]2CN(c4ccc(C#N)c5ncccc45)C[C@@H](C)O2)C3)CCN1` (stereo partly drawn) [Example 67, Methyl 4-[2-[[(2S,6R)-4-(8-cyano-5-quinolyl)-6-methyl-morpholin-2-yl]methyl]isoindolin-5-yl] piperazine-2-carboxylate], the IC50 is 56 nM.

For `C[C@@H]1CN(c2ccc(C#N)c3ncccc23)C[C@H](CN2Cc3cc(N4CCNCC4)cnc3C2)O1` [Example 20, 5-[(2R,6S)-2-methyl-6-[(3-piperazin-1-yl-5,7-dihydropyrrolo[3,4-b]pyridin-6-yl)methyl]morpholin-4-yl]quinoline-8-carbonitrile], the IC50 was 14 nM.

For `C[C@@H]1CN(c2ccc(C#N)c3ncccc23)C[C@H](CN2Cc3cnc(N4CCNCC4)nc3C2)O1` [Example 63, 5-[(2R,6S)-2-methyl-6-[(2-piperazin-1-yl-5,7-dihydropyrrolo[3,4-d]pyrimidin-6-yl)methyl]morpholin-4-yl]quinoline-8-carbonitrile], the IC50 was 13 nM.

Regarding `C[C@@H]1CN(c2ccc(C#N)n3nccc23)C[C@H](CN2Cc3ccc(C4CCNCC4)cc3C2)O1` [Example 8, 4-[(2R,6S)-2-methyl-6-[[5-(4-piperidyl)isoindolin-2-yl]methyl]morpholin-4-yl]pyrazolo[1,5-a]pyridine-7-carbonitrile], the IC50 came out at 206 nM.

As for `C[C@@H]1CN(c2ccc(C#N)n3nccc23)C[C@H](CN2CCc3cnccc3C2)O1` [Example R1, 4-[(2S,6R)-2-(3,4-dihydro-1H-2,6-naphthyridin-2-ylmethyl)-6-methyl-morpholin-4-yl]pyrazolo[1,5-a]pyridine-7-carbonitrile, reference compound], the IC50 was 550 nM.
